Experimental data reported in US8778886B2, “Methods of making and using a cell penetrating peptide for enhanced delivery of nucleic acids, proteins, drugs, and adenovirus to tissues and cells, and compositions and kits” (Tufts University, priority 2007, dated 2014).
Residues, ends and D or L forms follow the SMILES beside them. No end group written: not given here. *: point of attachment. FITC = O=C1OC2(c3ccc(O)cc3Oc3cc(O)ccc32)c2ccc(NC(=S)*)cc21

What was measured:
[1] = tested on: HER cells; assay: Membrane permeabilization, propidium iodide uptake after F-POD; type: cell-based, human; conditions: FACS, F-POD 0.2 to 2.0 μM (average), Triton-X100 1%
Procedure: HER cells were seeded on Lab Tek-II chamber slides and grown to about 70% confluence. Cells were washed twice with PBS and incubated with […] L-POD for 0, 5, 15, 30, 45, and 60 minutes or 1 nmol Lissamine only for 60 minutes. Cells were fixed for 15 minutes in formalin at room temperature. Cells for live imaging were grown on 24 well plates and incubated with […] of L-POD. Following incubation, cells were washed three times with PBS, incubated in phenol red-free DMEM supplemented with 2% FBS. Cells were visualized by light and fluorescent microscopy using either an Olympus IX51 (live cells) or an Olympus BX51 (fixed cells) with DIC, RFP, and GFP filters. Images were obtained using a Retiga 2000R FAST camera and QCapture Pro 5.0 (QImaging, BC, Canada). To measure L-POD uptake in the presence of trypsin, 0.2×10^6 HER cells were incubated with 2.0 nmole L-POD in media for 15 minutes at 37° C. followed by incubation in 2.5 mg/ml trypsin for 12 minutes at 37° C. For analysis of uptake at 4° C., cells were cooled to 4° C. for 45 minutes prior to the addition of peptide and cold (4° C.) reagents were used for peptide administration. […] The number of PI-positive cells was analyzed by FACS. […] Examples were performed in triplicate and 10,000 events per sample were counted. Results were analyzed using CellQuest Pro software (Becton Dickinson). […]

[2] = tested on: E. coli; assay: Microbicidal activity, colony count after plating; type: cell-based; conditions: 2 hours at 37° C., plating on LB agar
Procedure: (§1) Lissamine conjugated POD (L-POD) and either heparan sulfate or chondroitan sulfate were incubated together at each of molar ratios of 1:3.33, 1:6.67, and 1:8 in water for 30 minutes at room temperature. The complex was diluted in DMEM+2% FBS and added to 0.2×]06 HER cells for 5 minutes at 37° C. Following incubation, cells were trypsinized and suspended in PBS for FACS analysis as described above. To measure microbicidal activity of C-POD, XL-1 Blue cells (Stratagene, La Jolla, Calif.) were grown to mid logarithmic phase (OD600=0.600) and washed twice in a solution of 10 mM Tris, pH 7.4 and 5 mM Glucose. The cells were resuspended in 10 mL of the same solution and […] of the suspension was incubated with C-POD in a final volume of 50 μL. The peptide/bacteria cell solution was rocked for 2 hours at 37° C. The peptide-treated bacteria was diluted 1:4500 with LB broth, plated on agar, and grown overnight at 37° C. The following day, the bacterial colonies on each plate were counted to quantify peptide-related reduction in growth.
Since endophthalmitis, an infection within the eye, is regularly a complicating factor in drug delivery to ocular tissues [Ho J et al. 2007 Int Opthalmol Clin 47: 199-208], C-POD was examined for potential microbicidal activities. E. coli cells grown to mid-log phase were incubated with either H20 only or C-POD suspended in H20 at concentrations ranging from 0.03 μM to 60 μM, and cell number was determined by plating samples on LB agar. […] Greater concentrations of C-POD completely eliminated bacterial growth.

[3] = tested on: Human embryonic retinal (HER) 911 cells; assay: L-POD uptake by HER cells (microscopy, lissamine-positive cells by FACS); type: cell-based
Procedure: HER cells were seeded on Lab Tek-II chamber slides and grown to about 70% confluence. Cells were washed twice with PBS and incubated with […] L-POD for 0, 5, 15, 30, 45, and 60 minutes or 1 nmol Lissamine only for 60 minutes. Cells were fixed for 15 minutes in formalin at room temperature. Cells for live imaging were grown on 24 well plates and incubated with […] of L-POD. Following incubation, cells were washed three times with PBS, incubated in phenol red-free DMEM supplemented with 2% FBS. Cells were visualized by light and fluorescent microscopy using either an Olympus IX51 (live cells) or an Olympus BX51 (fixed cells) with DIC, RFP, and GFP filters. Images were obtained using a Retiga 2000R FAST camera and QCapture Pro 5.0 (QImaging, BC, Canada). To measure L-POD uptake in the presence of trypsin, 0.2×10^6 HER cells were incubated with 2.0 nmole L-POD in media for 15 minutes at 37° C. followed by incubation in 2.5 mg/ml trypsin for 12 minutes at 37° C. For analysis of uptake at 4° C., cells were cooled to 4° C. for 45 minutes prior to the addition of peptide and cold (4° C.) reagents were used for peptide administration. Following incubation with peptide, cells were washed twice with PBS and spun and resuspended in PBS for FACS analysis. For measurement of membrane permeabilization, HER cells were incubated with 2.0 nmole FITC-HBP for 30 minutes at 37° C., washed twice, isolated, and suspended in PBS with 1 μM PI. The number of PI-positive cells was analyzed by FACS. FACS analysis was performed using a FACSCalibur (Becton Dickinson). Examples were performed in triplicate and 10,000 events per sample were counted. Results were analyzed using CellQuest Pro software (Becton Dickinson).
Human embryonic retinal (HER) 911 cells [Fallaux F J et al. 1996 Hum. Gene Ther. 7: 215-222] incubated with […] (8 μM) lissamine-conjugated POD (L-POD), followed by formalin fixation, became […] to 558 nm excitation (emission measured at 583 nm) within 1 min and appeared normal in bright field (FIG. 1 panel A). Within 5 min, L-POD was seen within the cytoplasm with both a diffuse cytoplasmic and slightly punctate pattern (Figure panel A).
To determine whether L-POD was internalized or was non-specifically associated with the plasma membrane, HER cells incubated with 2 nmoles (8 μM) L-POD for 15 min were treated with trypsin at 37° C. prior to counting of lissamine-positive cells by FACS. […] Sensitivity of POD peptide to trypsin-mediated digestion was confirmed by incubation of […] of C-POD with trypsin prior to loading on an acrylamide gel (inset FIG. 1 panel C). Whereas 92.23±0.65% of HER cells were lissamine-positive when incubated with L-POD at 37° C., only 48.74±2.32% of cells were lissamine-positive when incubated with L-POD at 4° C. (FIG. 1 panel D).

[4] = tested on: HER cells; assay: Inhibition of L-POD uptake by proteoglycans; type: cell-based, human
Procedure: as §1
To determine whether L-POD uses cell surface proteoglycans for binding and cell entry, L-POD was pre incubated with different amounts of either of the proteoglycans chondroitin sulfate or heparan sulfate, prior to addition to HER cells. Based on data from preliminary studies, ratios of L-POD:proteoglycan of 1:3.33, 1:6.67 and 1:8 were selected.
In contrast, the uptake of a TRITC-conjugated peptide containing an integrin-binding RGD motif was not affected by pre-incubation with either proteoglycan (FIG. 3 panel A).

[5] = tested on: neural retina; assay: Subretinal / intravitreal delivery of L-POD and QDPOD to retina in vivo; set-up: species or system C57BL/6J mice; conditions: 2 hours
Procedure: The use of animals in this work was in accordance with the ARVO Statement for the Use of Animals in Ophthalmic and Vision Research. C57BL/6J mice were purchased from Jackson Laboratories, bred and maintained in a 12-hour light-dark cycle and cared for in accordance with federal, state and local regulations. For each Example herein at least 4 mice (8 eyes) were investigated, yielding roughly similar results. Mice were anesthetized by […] injection of xylazine (10 mg/ml)/ketamine (1 mg/ml). Subretinal or intravitreal injections were performed with a 32 G needle attached to a 5 μl glass syringe (Hamilton) by a trans scleral trans choroidal approach to deliver 0.25 nmole of L-POD per eye. For topical delivery to cornea, male C57BL6/6J mice at 6 weeks of age were anesthetized by intraperitoneal injection of ketamine/xylazine and 10 nmoles of either L-POD or lissamine only were dropped on the cornea and incubated for 45 minutes or 24 hours. Upon completion of the treatment, the animal was sacrificed by CO2 inhalation followed by cervical dislocation and the eyes harvested and washed three times in PBS. Fluorescent and bright field images were taken of each eye using a Nikon C-FMC microscope prior to fixation. Eyes were fixed overnight at 4° C. in 4% paraformaldehyde and embedded in Optimal Cutting Temperature Compound and 14 μm sections were collected using a Microm 550 cryostat. […]

[6] = tested on: cornea, sclera, optic nerve; assay: Topical application of L-POD to whole mouse eye in vivo; set-up: species or system C57BL6/6J mice; conditions: for staining of external ocular tissues: topical, 10 nmol, 45 min
Procedure: The use of animals in this work was in accordance with the ARVO Statement for the Use of Animals in Ophthalmic and Vision Research. C57BL/6J mice were purchased from Jackson Laboratories, bred and maintained in a 12-hour light-dark cycle and cared for in accordance with federal, state and local regulations. For each Example herein at least 4 mice (8 eyes) were investigated, yielding roughly similar results. Mice were anesthetized by […] injection of xylazine (10 mg/ml)/ketamine (1 mg/ml). Subretinal or intravitreal injections were performed with a 32 G needle attached to a 5 μl glass syringe (Hamilton) by a trans scleral trans choroidal approach to deliver 0.25 nmole of L-POD per eye. For topical delivery to cornea, male C57BL6/6J mice at 6 weeks of age were anesthetized by intraperitoneal injection of ketamine/xylazine and 10 nmoles of either L-POD or lissamine only were dropped on the cornea and incubated for 45 minutes or 24 hours. Upon completion of the treatment, the animal was sacrificed by CO2 inhalation followed by cervical dislocation and the eyes harvested and washed three times in PBS. Fluorescent and bright field images were taken of each eye using a Nikon C-FMC microscope prior to fixation. Eyes were fixed overnight at 4° C. in 4% paraformaldehyde and embedded in Optimal Cutting Temperature Compound and 14 μm sections were collected using a Microm 550 cryostat.
To assess penetration of the cornea and sclera with L-POD, whole mouse eye was incubated in vivo with 10 nmol L-POD for 45 min followed by harvesting of ocular tissues.

## C[C@H](NC(=O)[C@H](CCCCN)NC(=O)[C@H](C)NC(=O)[C@H](C)NC(=O)[C@H](CCCCN)NC(=O)[C@H](CCCCN)NC(=O)[C@H](CCCNC(=N)N)NC(=O)[C@H](C)NC(=O)[C@H](C)NC(=O)[C@H](CCCCN)NC(=O)[C@H](C)NC(=O)[C@H](C)NC(=O)[C@H](CCCCN)NC(=O)[C@H](CCCCN)NC(=O)[C@H](CCCNC(=N)N)NC(=O)[C@H](C)NC(=O)[C@H](C)NC(=O)[C@H](CCCCN)NC(=O)[C@H](C)NC(=O)[C@H](C)NC(=O)[C@H](CCCCN)NC(=O)[C@H](CCCCN)NC(=O)[C@H](CCCNC(=N)N)NC(=O)[C@H](C)NC(=O)[C@H](C)NC(=O)[C@H](CCCCN)NC(=O)[C@H](C)NC(=O)[C@H](C)NC(=O)[C@H](CCCCN)NC(=O)[C@H](CCCCN)NC(=O)[C@H](CCCNC(=N)N)NC(=O)[C@H](C)NC(=O)CNC(=O)CNC(=O)CNC(=S)Nc1ccc2c(c1)C(=O)OC21c2ccc(O)cc2Oc2cc(O)ccc21)C(=O)O [F-POD] ({FITC}-GGGARKKAAKAARKKAAKAARKKAAKAARKKAAKA-OH)
[1]
  PI-positive cells: 3.98±0.70%

## GGG(ARKKAAKA)4 [POD]
[2]
  concentration giving significant inhibition of bacterial growth: 0.3 µM

## L-POD: N terminal lissamine conjugated GGG(ARKKAAKA)4 (SEQ ID NO: 1) (lissamine-GGGARKKAAKAARKKAAKAARKKAAKAARKKAAKA)
[3]; 2 nmoles (8 μM) L-POD 15 min, with incubation with trypsin
  lissamine-positive cells: 90.10±1.89%
[3]; 2 nmoles (8 μM) L-POD 15 min, without incubation with trypsin
  lissamine-positive cells: 92.23±0.65%
[3]; 2 nmoles (8 μM) L-POD, formalin fixation
  time until L-POD was seen within the cytoplasm: ≤ 5 min
[3]; chlorpromazine, genistein, filipin
  uptake of L-POD in the presence of inhibitors of endocytosis: no significant reduction
[3]; incubated with L-POD at 4° C.
  lissamine-positive cells: 48.74±2.32%
[3]; incubated with L-POD at 37° C.
  lissamine-positive cells: 92.23±0.65%
[4]; chondroitin sulfate, 1:6.67
  uptake of L-POD (lissamine-positive cells): 59.43±1.55%
[4]; chondroitin sulfate, 1:8
  uptake of L-POD (lissamine-positive cells): 34.38±3.13%
[4]; chondroitin sulfate, L-POD:proteoglycan 1:3.33
  uptake of L-POD (lissamine-positive cells): 71.24±1.77%
[4]; heparan sulfate, 1:3.33
  uptake of L-POD (lissamine-positive cells): 78.60±0.35%
[4]; heparan sulfate, 1:6.67
  uptake of L-POD (lissamine-positive cells): 57.78±2.83%
[4]; heparan sulfate, 1:8
  uptake of L-POD (lissamine-positive cells): 44.37±2.17%
[4]; without pre incubation with any proteoglycan
  lissamine-positive cells: 90.07±0.64%
[5]; intravitreal
  transduction of neural retina: approximately 85%
[5]; subretinal
  transduction of neural retina: approximately 40%
[6]; administered topically
  time to reach the optic nerve: ≤ 45 min
[6]
  staining of external ocular tissues: bound strongly to the cornea, sclera and unexpectedly, also the optic nerve

## Triton-X100 [reference compound]
[1]
  PI-positive cells: 91.44±9.66%

## lissamine [reference compound]
[3]; lissamine only, fixed cells
  uptake by HER cells (microscopy): no evidence of uptake
[6]
  staining of external ocular tissues: weakly stained the cornea and sclera and did not stain the optic nerve
